Measured values: US9499495B2, “Quinazolines and azaquinazolines as dual inhibitors of RAS/RAF/MEK/ERK and PI3K/AKT/PTEN/mTOR pathways” (Asana Biosciences, LLC, priority 2013, dated 2016)

Tests used:
PI3Kα = molecular target: T1, PI3Kα (Homo sapiens, UniProt P42336); assay: PI3 Kinase alpha TR-FRET assay; type: biochemical
T1 construct: made in house; host or cells: SF9 cells
Procedure, shortened: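 Purified Sf9-expressed p110/p85α (5 ng) was pre-incubated with compound and PIP2 at rt, then ATP was added (PIP2 and ATP both 40 μM) for a 30 min reaction. PIP3 was detected by TR-FRET displacement of biotin-PIP3, and IC50 was taken from dose-response curves of the 665/615 nm emission ratio.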

mTOR kinase = molecular target: T2, mTOR kinase (Homo sapiens, UniProt P42345); assay: mTOR kinase TR-FRET assay; type: biochemical
T2 construct: purchased Millipore, US
Procedure, shortened: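 TR-FRET with ULight-p70 S6K (Thr 389) peptide (50 nM) and 20 μM ATP in 50 mM HEPES pH 7.5, 1 mM EGTA, 3 mM MnCl2; compound pre-incubated with enzyme before substrate addition, reaction at rt, EDTA-stopped. Eu anti-phospho antibody read 665/615 nm; IC50 from sigmoidal dose-response fit.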

pERK in A375 cells = assay: In Cell Western (ICW) assay, pERK in A375 cells; type: cell-based; details: Homo sapiens, A-375, 3 h treatment
Procedure, shortened: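 RKO or A375 cells were exposed to compounds for 3 h at 37 °C, then fixed and stained in-cell with antibodies to pERK1/2 (T202/Y204), pS6RP or pAKT T308, followed by a Eu-labelled secondary. Time-resolved fluorescence (340/615 nm) was normalized to Hoechst, and IC50 values were fitted sigmoidally against DMSO as 0% inhibition.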

T1 sequence (P42336 whole entry, species assumed): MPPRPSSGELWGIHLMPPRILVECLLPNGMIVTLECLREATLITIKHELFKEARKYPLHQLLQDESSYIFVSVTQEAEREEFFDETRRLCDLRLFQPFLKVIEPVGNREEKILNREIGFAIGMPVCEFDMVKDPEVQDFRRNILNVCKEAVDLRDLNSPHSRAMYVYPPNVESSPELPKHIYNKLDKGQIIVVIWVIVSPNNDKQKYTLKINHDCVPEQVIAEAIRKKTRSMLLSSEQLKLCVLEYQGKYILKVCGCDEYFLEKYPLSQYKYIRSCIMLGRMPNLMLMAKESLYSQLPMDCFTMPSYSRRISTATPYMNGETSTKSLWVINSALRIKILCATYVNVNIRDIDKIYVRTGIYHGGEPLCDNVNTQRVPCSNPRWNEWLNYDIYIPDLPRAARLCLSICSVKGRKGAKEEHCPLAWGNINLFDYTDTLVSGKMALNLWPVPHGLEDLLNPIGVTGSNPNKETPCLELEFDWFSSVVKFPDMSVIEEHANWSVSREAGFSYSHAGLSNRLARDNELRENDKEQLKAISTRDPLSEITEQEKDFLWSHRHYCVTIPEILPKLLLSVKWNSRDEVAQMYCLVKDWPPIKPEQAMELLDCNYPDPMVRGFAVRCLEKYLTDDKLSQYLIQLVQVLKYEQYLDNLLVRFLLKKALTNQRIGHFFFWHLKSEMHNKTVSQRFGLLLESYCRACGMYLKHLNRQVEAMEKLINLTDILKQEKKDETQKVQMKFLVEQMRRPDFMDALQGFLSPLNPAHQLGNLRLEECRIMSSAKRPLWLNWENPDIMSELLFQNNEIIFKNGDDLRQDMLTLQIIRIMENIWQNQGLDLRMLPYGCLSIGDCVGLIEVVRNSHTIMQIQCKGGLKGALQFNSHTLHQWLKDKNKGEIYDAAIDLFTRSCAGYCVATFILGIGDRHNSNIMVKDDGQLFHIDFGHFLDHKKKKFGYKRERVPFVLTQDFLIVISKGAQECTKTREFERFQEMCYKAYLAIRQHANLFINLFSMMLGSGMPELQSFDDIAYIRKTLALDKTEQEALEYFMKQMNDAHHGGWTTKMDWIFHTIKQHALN
T1 sequence (P27986 whole entry partner, species assumed): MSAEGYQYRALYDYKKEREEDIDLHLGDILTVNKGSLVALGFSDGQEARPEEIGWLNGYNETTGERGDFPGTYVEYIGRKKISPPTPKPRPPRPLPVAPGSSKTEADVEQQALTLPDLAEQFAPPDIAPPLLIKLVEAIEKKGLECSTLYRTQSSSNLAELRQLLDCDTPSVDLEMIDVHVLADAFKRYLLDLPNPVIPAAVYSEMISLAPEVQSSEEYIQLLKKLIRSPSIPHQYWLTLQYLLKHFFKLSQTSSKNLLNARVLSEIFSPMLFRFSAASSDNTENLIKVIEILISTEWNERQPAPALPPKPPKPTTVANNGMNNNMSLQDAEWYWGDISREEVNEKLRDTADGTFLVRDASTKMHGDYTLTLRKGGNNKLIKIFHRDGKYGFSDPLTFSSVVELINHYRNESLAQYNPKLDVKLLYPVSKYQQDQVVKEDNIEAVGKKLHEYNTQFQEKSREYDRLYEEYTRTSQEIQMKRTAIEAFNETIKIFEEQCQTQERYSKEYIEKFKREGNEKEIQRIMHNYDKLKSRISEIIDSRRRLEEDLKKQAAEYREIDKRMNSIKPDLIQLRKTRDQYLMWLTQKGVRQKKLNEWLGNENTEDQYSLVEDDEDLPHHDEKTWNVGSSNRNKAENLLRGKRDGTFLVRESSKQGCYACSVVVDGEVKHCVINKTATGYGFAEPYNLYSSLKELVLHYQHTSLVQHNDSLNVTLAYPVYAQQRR
T2 sequence (P42345 1362-2549 limits assumed): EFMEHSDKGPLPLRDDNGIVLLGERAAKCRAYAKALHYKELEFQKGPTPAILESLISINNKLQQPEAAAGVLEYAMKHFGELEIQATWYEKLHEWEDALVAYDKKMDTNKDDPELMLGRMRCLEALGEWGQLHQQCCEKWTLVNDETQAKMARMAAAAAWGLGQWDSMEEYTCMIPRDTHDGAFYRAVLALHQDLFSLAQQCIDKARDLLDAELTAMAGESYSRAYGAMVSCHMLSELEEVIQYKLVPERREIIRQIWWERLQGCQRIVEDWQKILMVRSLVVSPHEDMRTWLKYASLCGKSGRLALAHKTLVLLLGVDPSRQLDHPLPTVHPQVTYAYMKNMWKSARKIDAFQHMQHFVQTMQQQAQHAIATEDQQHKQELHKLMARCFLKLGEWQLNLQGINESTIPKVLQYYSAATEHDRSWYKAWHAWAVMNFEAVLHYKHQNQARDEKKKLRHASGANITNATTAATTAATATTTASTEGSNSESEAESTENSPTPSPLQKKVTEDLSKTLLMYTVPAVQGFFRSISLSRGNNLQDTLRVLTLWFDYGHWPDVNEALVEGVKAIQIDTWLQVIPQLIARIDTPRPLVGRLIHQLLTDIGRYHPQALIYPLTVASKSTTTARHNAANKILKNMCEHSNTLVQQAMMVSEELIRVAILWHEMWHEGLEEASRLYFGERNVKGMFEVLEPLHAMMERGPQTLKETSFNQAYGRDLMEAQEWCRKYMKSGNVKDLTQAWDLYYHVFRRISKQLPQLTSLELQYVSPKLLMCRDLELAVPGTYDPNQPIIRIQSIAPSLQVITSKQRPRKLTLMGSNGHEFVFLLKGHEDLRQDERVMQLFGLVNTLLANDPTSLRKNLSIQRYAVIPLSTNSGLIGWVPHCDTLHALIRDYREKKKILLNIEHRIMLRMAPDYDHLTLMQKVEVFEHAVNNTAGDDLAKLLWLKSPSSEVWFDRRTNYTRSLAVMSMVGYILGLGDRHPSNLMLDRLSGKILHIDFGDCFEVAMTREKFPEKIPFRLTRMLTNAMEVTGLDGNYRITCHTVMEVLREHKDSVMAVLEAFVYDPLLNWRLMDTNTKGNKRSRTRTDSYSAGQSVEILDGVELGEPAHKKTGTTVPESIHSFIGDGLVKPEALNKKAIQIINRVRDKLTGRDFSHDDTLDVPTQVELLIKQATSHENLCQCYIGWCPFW

Compound	IC50 (PI3Kα) [nM]	IC50 (mTOR kinase) [nM]	IC50 (pERK in A375 cells) [nM]
Nc1cc(C(F)(F)F)c(-c2nc(N3CCOCC3)c3nc(-c4cccc(NS(=O)(=O)c5c(F)cccc5F)c4F)ccc3n2)cn1 [Example 106, N-(3-(2-(6-amino-4-(trifluoromethyl)pyridin-3-yl)-4-morpholinopyrido[3,2-d]pyrimidin-6-yl)-2-fluorophenyl)-2,6-difluorobenzenesulfonamide]	1 to 100	1 to 100	1000 to 10000
C[C@H]1COCCN1c1nc(-c2cnc(N)cc2C(F)(F)F)nc2ccc(-c3cccc(NS(=O)(=O)CCCF)c3F)nc12 [Example 108, (S)-N-(3-(2-(6-amino-4-(trifluoromethyl)pyrldin-3-yl)-4-(3-methylmorpholino)pyrido[3,2-d]pyrimidin-6-yl)-2-fluorophenyl)-3-fluoropropane-1-sulfonamide]	1 to 100	100 to 1000	1 to 100
O=S(=O)(CCCF)Nc1cccc(-c2ccc3nc(-c4ccc(NCCCO)nc4)nc(N4CCOCC4)c3n2)c1F [Example 111, 3-fluoro-N-(2-fluoro-3-(2-(6-((3-hydroxypropyl)amino)pyridin-3-yl)-4-morpholinopyrido[3,2-d]pyrimidin-6-yl)phenyl)propane-1-sulfonamide]	100 to 1000	1 to 100	100 to 1000
CNc1ccc(-c2nc(N3CCOCC3)c3nc(-c4cccc(NS(=O)(=O)CCCF)c4F)ccc3n2)cn1 [Example 113, 3-fluoro-N-(2-fluoro-3-(2-(6-(methylamino)pyridin-3-yl)-4-morpholinopyrido[3,2-d]pyrimidin-6-yl)phenyl)propane-1-sulfonamide]	1 to 100	1 to 100	1 to 100
Cc1cc(-c2cccc(NS(=O)(=O)CCCF)c2F)cc2c(N3CCOCC3)nc(-c3cnc(N)nc3)nc12 [Example 116, N-(3-(2-(2-aminopyrimidin-5-yl)-8-methyl-4-morpholinoquinazolin-6-yl)-2-fluorophenyl)-3-fluoropropane-1-sulfonamide]	100 to 1000	100 to 1000	1 to 100
C[C@H]1COCCN1c1nc(-c2cnc(N)cc2F)nc2ccc(-c3cccc(NS(=O)(=O)CCCF)c3F)nc12 [Example 129, (S)-N-(3-(2-(6-amino-4-fluoropyridin-3-yl)-4-(3-methylmorpholino)pyrido[3,2-d]pyrimidin-6-yl)-2-fIuorophenyl)-3-fluoropropane-1-sulfonamide]	1 to 100	1 to 100	100 to 1000
COc1cc(-c2cccc(NS(=O)(=O)CCCF)c2F)cc2c(N3CCOC[C@H]3C)nc(-c3cnc(N)c(F)c3)nc12 [Example 134, (R)-N-(3-(2-(6-amino-5-fluoropyridin-3-yl)-8-methoxy-4-(3-methylmorpholino)quinazolin-6-yl)-2-fluorophenyl)-3-fluoropropane-1-sulfonamide]	1000 to 10000	1 to 100	1 to 100
COc1cc(-c2cccc(NS(=O)(=O)CCCF)c2F)cc2c(N3CCOC[C@H]3C)nc(-c3cnc(N)cc3F)nc12 [Example 135, (R)-N-(3-(2-(6-amino-4-fluoropyridin-3-yl)-8-methoxy-4-(3-methylmorpholino)quinazolin-6-yl)-2-fluorophenyl)-3-fluoropropane-1-sulfonamide]	1000 to 10000	1 to 100	1 to 100
